Read-outs that look alike come from different tables or passages of the source.
Legend:
[1] = tested on: baboons; conditions: 4 h after administration; reanalyzed data; ref Goodwin et al. 2005; cited from earlier work
[2] = tested on: baboons; conditions: ref Goodwin et al. 2005, cited from earlier work
[3] = tested on: humans; conditions: ref Carter et al. 2006; cited from earlier work
[4] = cited from earlier work; for Mean maximum concentration of GHB in plasma: human, 50 mg/kg GHB
[5] = Pharmacokinetics: GHB in plasma after intragastric GHB, GBL or 1,4-BD; conditions: for Mean maximum concentration of GHB in plasma: baboon, ±SD

For `O=C(O)CCCO` [GHB, Gamma-hydroxybutyrate], the “Food-maintained behavior compared to vehicle” value [1] is listed as “not significantly altered”, the “Duration to complete the fine-motor task” value ([2]; 180−420 mg/kg, 120 min postadministration) is listed as “increased” and the “Duration to complete the fine-motor task” value ([2]; any dose tested, 60 min postadministration) is listed as “did not alter”. The “Time of maximal drug effects postadministration” value [3] was 1−2 h, the “Maximum concentration of GHB, range” value ([4]; human subjects, total doses of 3−4.5 g GHB (i.e., 42.8 mg/kg), ref Scharf et al. 1998) was 30 to 103 µg/mL and the “Mean maximum concentration of GHB in plasma” value (shortened to “Mean maximum concentration”) ([4]; ref Abanades et al. 2007) was 83.1 (+10.7 SD) μg/ml. The “Mean maximum concentration” value ([4]; ref Palatini et al. 1993) was 20 µg/mL, the “Mean maximum concentration” value ([5]; 32 mg/kg GHB) was 18.46 (±8.66 SD) μg/ml and the “Mean maximum concentration” value ([5]; 100 mg/kg GHB) was 72.2 (±15.73 SD) μg/ml. It also gave an AUC ([5]; monkey, plasma, po, 320 mg/kg) of 4580 µM·h, a Cmax ([5]; monkey, plasma, po, 320 mg/kg) of 598 to 1940 µM and a half-life ([5]; monkey, plasma, po, 320 mg/kg) of 12.2 h. For the same molecule, the Tmax ([5]; plasma, po, 320 mg/kg) was 6 h.
